In patent US11255806B2, “Interdigitated electrodes for in vitro analysis of cells” (UNIVERSITY OF CENTRAL FLORIDA RESEARCH FOUNDATION, INC., priority 2017, dated 2022):
“And” between values parts separate entries of the source, which are not always exact repeats. Equal values may be shown once.

Test system: iPSC cardiomyocytes (iCell Cardiomyocytes^2)
Assay: Model drug (norepinephrine) cardiotoxicity experiment: impedance / cell index on nIDEs with cultured iPSC cardiomyocytes
Assay type: cell-based, Human

Structure (SMILES): NC[C@H](O)c1ccc(O)c(O)c1 [norepinephrine]
- change of CI and % CI with norepinephrine concentration (0 μM to 250 μM, N=6, FIG. 24): both decrease as the concentration of norepinephrine increases
- percent cell index (% CI) (at 256 μm norepinephrine, mean of N=7, 86.91% at 0 μM, FIG. 24): 48.88%
- cell index (CI) (at 256 μm norepinephrine, mean of N=7, CI=2.34 at 0 μM, FIG. 23): 1.13
- cellular index (CI) after increased concentrations of norepinephrine (summary statement, concentration not given, decrease from 2.34 / 2.3): 1.13 and 1
